Each structure is given as a SMILES string.

Among the data in article PMC6479601, “Salicylate and Procyanidin-Rich Stem Extracts of Gaultheria procumbens L. Inhibit Pro-Inflammatory Enzymes and Suppress Pro-Inflammatory and Pro-Oxidant Functions of Human Neutrophils Ex Vivo” (International Journal of Molecular Sciences, 2019) are IC50 values, retold here.

In one assay the target is T1, LOX (lipoxygenase).
T1 construct: gene LOX1.1
Nature of the assay: lipoxygenase inhibition assay (Matczak et al.). It is filed as biochemical. To be noted: eight-point curve; read-out: LOX / IC50 (mg GAE/mL; mM) ^b. The text has this:
lipoxygenase inhibition assay (Matczak et al.) on LOX (lipoxygenase)

The target in the next assay is T2, HYAL (hyaluronidase).
T2 construct: gene SPAM1
The experiment in a line: hyaluronidase inhibition assay (Matczak et al.). The class given is biochemical. The settings on record: eight-point curve; read-out: HYAL / IC50 (μg GAE/mL; μM) ^b. The text has this:
hyaluronidase inhibition assay (Matczak et al.) on HYAL (hyaluronidase)

As for `C[C@@H]1C[C@H]2[C@@H]3CCC4=CC(=O)C=C[C@]4(C)[C@@]3(F)[C@@H](O)C[C@]2(C)[C@@]1(O)C(=O)CO` [DEX], the IC50 on LOX (lipoxygenase) was 0.3 ± 0.02 mM; on HYAL (hyaluronidase) it was 36.1 ± 2.68 µM.
The corresponding values for `COc1ccc2c(c1)c(CC(=O)O)c(C)n2C(=O)c1ccc(Cl)cc1` [IND] are 0.26 ± 0.01 mM and 35.7 ± 5.34 µM.
For `Oc1cc(O)c2c(c1)O[C@H](c1ccc(O)c(O)c1)[C@H](O)[C@H]2c1c(O)cc(O)c2c1O[C@H](c1ccc(O)c(O)c1)[C@H](O)C2` [PB2], in that order: 0.29 ± 0.03 mM and 37.4 ± 1.78 µM.
The corresponding values for `COC(=O)c1ccccc1O[C@@H]1O[C@H](CO[C@@H]2OC[C@@H](O)[C@H](O)[C@H]2O)[C@@H](O)[C@H](O)[C@H]1O` [compound 18, methyl salicylate 2-O-(6′-O-β-D-xylopyranosyl)-β-D-glucopyranoside] are 1.26 ± 0.04 mM and 64 ± 2.87 µM.
As to `O=c1c(O)c(-c2ccc(O)c(O)c2)oc2cc(O)cc(O)c12` [compound 39, QU], the IC50 at LOX (lipoxygenase) came to 0.3 ± 0.02 mM; on HYAL (hyaluronidase), 102 ± 6.09 µM.
